The conditions of series [1]: cited from earlier work; for Toxicity: at the toxic dose range of the same line.
The nature of series [2]: Modulation of doxorubicin toxicity: survival. The note with it: doxorubicin 15 mg/kg i.p., alone or after labelled reversal agent 25 mg/kg i.p. An excerpt:
Female Balb/c mice (8-10 weeks of age, 20-22 g of body weight) were purchased from Jackson Laboratory (Maine, USA). Protocols were approved by the Animal Care Committee of the University Health Network. […] All the treatments were administrated via i.p. After treatment, mice were kept in sterile environment for six to eight weeks. […] Three mice from each group were sacrificed on day 4-post treatment. Hearts were removed immediately and fixed in 10% neutral buffered formalin. Tissue sections were made from heart tissue and stained with hematoxylin and eosin or with 1% Toluidine blue to identify mast cells. All the slides were evaluated by light microscopy for cardiac damage, mast cell density and degranulation.
All the colony data were analyzed by two-way analysis of variance (ANOVA), with differences between individual means determined by Bonferroni's post-tests. Data were expressed as means ±SEM. The Kaplan-Meier estimate was used to determine differences in the survival periods for mice following different drug combination treatments.

In series [3] the test system is MCF-7/adr cells. The series can be described thus: Breast cancer clonogenic assay, MCF-7/adr. Conditions: Homo sapiens, NCI/ADR-RES, presence of 10 mM of ketotifen (so in the source), read-out: IC90 of cytotoxic drugs on MCF-7/adr, +ke. It is filed as cell-based.
The subject of series [4] is MCF-7/adr cells. The series can be described thus: Breast cancer clonogenic assay, MCF-7/adr. It is filed as cell-based, Human. The note with it: for IC90: Homo sapiens, NCI/ADR-RES, absence of ketotifen, read-out: IC90 of cytotoxic drugs on MCF-7/adr, −ke. How it is done: MCF-7/adr cells were treated with different concentrations of reversal compounds with or without 2 μM doxorubicin for 24 hours. Cells were harvested, and plated for growth of breast cancer colonies in triplicates. […] DXN: doxorubicin.
FIG. 2 Influence of 10 μM of ketotifen on the toxicities of four cytotoxic drugs. MCF-7/adr cells were treated with different concentrations of chemotherapeutic agents in the presence or absence of 10 μM ketotifen for 24 hours. Cells were harvested, washed and plated for growth of breast cancer colonies as described in the Materials and Methods. […] Ke: ketotifen.
The toxicity of the cytotoxic drugs was measured by clonogenicity assay.
MCF-7/mx and MCF-7/vp cell lines were also used. Other cell lines could also be used. […] The MCF-7/vp cell line was selected with etoposide and overexpresses Multidrug Resistance-associated Protein gene (MRP). All the cell lines were grown routinely as monolayer culture in Dulbecco's Minimal Essential Media (DME) supplemented with L-glutamine (2 mM), penicillin, streptomycin and 10% heat-inactivated fetal bovine serum SUBS, GIBCO) in an atmosphere of 5% CO2 at 37° C. The cell lines were passaged weekly.
(§1) Both adherent and non-adherent cells were collected and washed with fresh medium. Cell aliquots (5×10^3) were plated in 1 ml of 0.3% agar over 1 ml of 0.5% agar underlayer prepared in IMDM containing 10% horse serum (GIBCO). The upper layer consisted of 20% FBS, 10 μg/ml of bovine insulin, 2.5 mg/ml of hydrocortisone, 5×10^−7M of 17-b-estradiol (Sigma) and 50 ng/ml of EGF (R & D Systems).

In the next series the test system is MCF-7/wt. In words: Breast cancer clonogenic assay, MCF-7/wt. It is filed as cell-based. Conditions: Homo sapiens, MCF7, 24 hours treatment, clonogenicity, read-out: IC90 of cytotoxic drugs on MCF-7/wt. How it is done:
(§2) The toxicity of the cytotoxic drugs was measured by clonogenicity assay. […] Beginning at 1 μM, ketotifen restored doxorubicin toxicity while at 10 μM, the MDR phenotype of MCF-7/adr cells was completely reversed. Over this concentration range, ketotifen itself is non-toxic to MCP-7/adr cells. […] As summarized in Table 3, IC90 levels on MCF-7/adr cells in the presence of ketotifen are almost identical to those for parental MCF-7 cells. […] Thus, ketotifen is a specific reversing agent for MDR associated with P-gp.
MCF-7 (MCF-7/wt) and its multidrug resistant variant MCF-7/adr cells were used. MCF-7/mx and MCF-7/vp cell lines were also used. Other cell lines could also be used. […] The MCF-7/vp cell line was selected with etoposide and overexpresses Multidrug Resistance-associated Protein gene (MRP). All the cell lines were grown routinely as monolayer culture in Dulbecco's Minimal Essential Media (DME) supplemented with L-glutamine (2 mM), penicillin, streptomycin and 10% heat-inactivated fetal bovine serum SUBS, GIBCO) in an atmosphere of 5% CO2 at 37° C. The cell lines were passaged weekly.
as §1, with “Exponentially growing MCF-7/wt and its three mutants MCF-7/adr, MCF-7/mx and MCF-7/vp were trypsinized, washed with fresh medium and plated in 6-well plates at a density of 1×10^5/ml. […] Both” for “Both”, “Systems). Colonies larger than 50 μm in size were scored after 14 days of incubation at 37° C. in a humidified atmosphere of 5% CO2 in air.” for “Systems).”

In another series the target is P-gp (Homo sapiens, UniProt P08183). Conditions: 2.5 h, 2 μM.
The next series concerns MCF-7/mx. In words: Breast cancer clonogenic assay, MCF-7/mx (BCRP overexpressing). It is filed as cell-based, Human. How it is done:
(§3) FIG. 3 Ketotifen fails to reverse MDR of MCF-7/mx and MCF-7/vp cell lines. MCF-7/mx and MCF-7/vp cell lines were treated and assayed as described in FIGS. 1 and 2. […] Ke: ketotifen.
as §2
(§4) MCF-7 (MCF-7/wt) and its multidrug resistant variant MCF-7/adr cells were used. MCF-7/mx and MCF-7/vp cell lines were also used. Other cell lines could also be used. […] The MCF-7/vp cell line was selected with etoposide and overexpresses Multidrug Resistance-associated Protein gene (MRP). […]
(§5) Exponentially growing MCF-7/wt and its three mutants MCF-7/adr, MCF-7/mx and MCF-7/vp were trypsinized, washed with fresh medium and plated in 6-well plates at a density of 1×10^5/ml. […] Colonies larger than 50 μm in size were scored after 14 days of incubation at 37° C. in a humidified atmosphere of 5% CO2 in air.

Series [5] relates to P388/adr murine leukemia cells. In words: p388 multi-drug resistant leukemia model. It is filed as in vivo, Mice. Conditions: ketotifen 75 mg/kg i.p. 30 minutes before doxorubicin 4 mg/kg i.p., once per week.
The subject of another series is MCF-7/vp cells. The series can be described thus: Breast cancer clonogenic assay, MCF-7/vp (MRP overexpressing). It is filed as cell-based, Human. How it is done:
as §3, §2, §4, §5

[6] abbreviates: with 2 μM doxorubicin, 24 hours.

The text below walks through data of patent US20060252714A1, “Pharmaceutical compositions and methods for treating multidrug resistant cancer” (priority 2003, published 2006).

Where a name gives a salt, the structure may show the parent alone. Read-outs that look alike come from different tables or passages of the source. Where only a bound is given, the exact number is not on record here.

Sequence of P-gp (P08183 whole entry): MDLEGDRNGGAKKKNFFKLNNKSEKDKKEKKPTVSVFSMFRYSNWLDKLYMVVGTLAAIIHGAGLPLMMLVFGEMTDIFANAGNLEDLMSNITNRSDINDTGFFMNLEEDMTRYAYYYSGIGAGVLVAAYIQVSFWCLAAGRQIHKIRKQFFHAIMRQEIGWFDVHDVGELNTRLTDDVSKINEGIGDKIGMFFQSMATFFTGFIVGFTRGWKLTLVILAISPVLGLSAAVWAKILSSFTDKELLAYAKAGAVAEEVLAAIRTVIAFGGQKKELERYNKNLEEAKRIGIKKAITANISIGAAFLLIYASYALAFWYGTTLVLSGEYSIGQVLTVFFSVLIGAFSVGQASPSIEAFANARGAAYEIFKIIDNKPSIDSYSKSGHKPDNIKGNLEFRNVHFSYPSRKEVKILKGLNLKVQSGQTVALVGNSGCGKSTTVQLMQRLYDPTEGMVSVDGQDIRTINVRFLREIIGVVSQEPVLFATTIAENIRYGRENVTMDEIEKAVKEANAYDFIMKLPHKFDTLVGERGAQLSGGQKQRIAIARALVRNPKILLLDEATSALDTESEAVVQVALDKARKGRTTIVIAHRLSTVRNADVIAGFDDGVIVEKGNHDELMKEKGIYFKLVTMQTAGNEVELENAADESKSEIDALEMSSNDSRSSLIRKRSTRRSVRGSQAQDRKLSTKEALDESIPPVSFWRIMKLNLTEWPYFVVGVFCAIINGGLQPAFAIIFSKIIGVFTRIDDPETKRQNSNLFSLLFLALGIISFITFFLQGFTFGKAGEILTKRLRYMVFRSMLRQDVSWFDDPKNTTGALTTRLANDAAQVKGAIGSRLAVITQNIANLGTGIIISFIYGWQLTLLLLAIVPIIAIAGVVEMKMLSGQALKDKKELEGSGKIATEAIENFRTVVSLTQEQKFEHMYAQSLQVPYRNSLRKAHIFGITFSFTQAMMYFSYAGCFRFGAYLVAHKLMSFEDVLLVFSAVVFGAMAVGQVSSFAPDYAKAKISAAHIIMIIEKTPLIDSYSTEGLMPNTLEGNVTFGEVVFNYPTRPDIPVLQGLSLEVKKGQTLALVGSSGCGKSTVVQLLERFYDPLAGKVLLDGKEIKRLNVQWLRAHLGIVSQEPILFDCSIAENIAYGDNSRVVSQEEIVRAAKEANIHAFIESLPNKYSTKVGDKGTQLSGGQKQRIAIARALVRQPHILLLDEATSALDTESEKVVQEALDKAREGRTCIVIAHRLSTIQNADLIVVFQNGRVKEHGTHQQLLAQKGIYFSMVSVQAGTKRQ

For the compound `COc1cc(NS(C)(=O)=O)ccc1Nc1c2ccccc2nc2ccccc12` [Amsacrine], the Toxicity result in series [1] is given as “Ventricular arrhythmia”.
`CS(=O)(=O)OCCCCOS(C)(=O)=O` [Bisulfan]: the “Toxic dose range” value in series [1] (IV unless otherwise indicated) was “Oral daily dose”. Moreover, the Toxicity entry in series [1] was “Endocardial fibrosis”.
Regarding `O=P1(N(CCCl)CCCl)NCCCO1` (centres unmarked) [Cyclophosphamide], in series [1] (over 2 d, IV), the Toxic dose range is >100 to 120 mg/kg.
Take `COc1cccc2c1C(=O)c1c(O)c3c(c(O)c1C2=O)C[C@@](O)(C(C)=O)C[C@@H]3O[C@H]1C[C@H](N)[C@H](O)[C@H](C)O1` [Daunorubicin]: the Toxicity entry in series [1] is on record as “Same toxocity as doxorubicin”. In addition, the Toxic dose range in series [1] (total dose, IV) is reported as >550 mg/m^2.
Turning to `COc1cccc2c1C(=O)c1c(O)c3c(c(O)c1C2=O)C[C@@](O)(C(=O)CO)C[C@@H]3O[C@H]1C[C@H](N)[C@H](O)[C@H](C)O1` [Doxorubicin, 8S,10S)-10-[(3-amino-2,3,6-trideoxy-a-L-lyxo-hexopyranosyl)oxy]-8-glycolyl-7,8,9,10-tetrahydro-6,8,11-trihydroxy-1-methoxy-5,12-naphthacenedione hydrochloride], the median survival time in series [2] came to 19.3 days. Moreover, the “survival rate at day 30” value in series [2] was 42%. For the same compound, the IC90 is 180 nM in the series with MCF-7/adr cells [3], > 10000 nM in the series on MCF-7/adr cells [4] and 120 nM with MCF-7/wt.
For the compound `O=c1[nH]cc(F)c(=O)[nH]1` [Fluorouracil], the Toxicity result in [1] was “Angina/myocardial infarction”.
Regarding `CO[C@@]12[C@H](COC(N)=O)C3=C(C(=O)C(C)=C(N)C3=O)N1C[C@@H]1N[C@@H]12` [Mitomycin], the “Toxic dose range” value in [1] (IV unless otherwise indicated) was “Conventional dose”.
On to `O=C1c2c(O)ccc(O)c2C(=O)c2c(NCCNCCO)ccc(NCCNCCO)c21` [Mitoxantrone], for which the IC90 worked out at 20 nM with MCF-7/adr cells [3], 220 nM in the series with MCF-7/adr cells [4] and 10 nM in the series on MCF-7/wt.
As to `CC(=O)O[C@H]1C(=O)[C@@]2(C)[C@H]([C@H](OC(=O)c3ccccc3)[C@]3(O)C[C@H](OC(=O)[C@H](O)[C@@H](NC(=O)c4ccccc4)c4ccccc4)C(C)=C1C3(C)C)[C@]1(OC(C)=O)CO[C@@H]1C[C@@H]2O` [Paclitaxel], in series [1], the Toxicity result is on record as “Bradycardia”.
With `COc1cc([C@@H]2c3cc4c(cc3[C@@H](O[C@@H]3O[C@@H]5CO[C@@H](C)O[C@H]5[C@H](O)[C@H]3O)[C@H]3COC(=O)[C@H]23)OCO4)cc(OC)c1O` [VP-16, etoposide], the IC90 was determined as 20000 nM with MCF-7/adr cells [3], 220000 nM in the series on MCF-7/adr cells [4] and 17000 nM in the series with MCF-7/wt.
As to `CC[C@]1(O)C[C@@H]2CN(CCc3c([nH]c4ccccc34)[C@@](C(=O)OC)(c3cc4c(cc3OC)N(C)[C@H]3[C@@](O)(C(=O)OC)[C@H](OC(C)=O)[C@]5(CC)C=CCN6CC[C@]43[C@@H]65)C2)C1` [Vinblastine], the IC90 in the series on MCF-7/adr cells [3] was determined as 1200 nM; with MCF-7/adr cells [4], 410000 nM; in the series with MCF-7/wt, 800 nM.
With `CC[C@]1(O)C[C@H]2CN(CCc3c([nH]c4ccccc34)[C@@](C(=O)OC)(c3cc4c(cc3OC)N(C=O)[C@H]3[C@@](O)(C(=O)OC)[C@H](OC(C)=O)[C@]5(CC)C=CCN6CC[C@]43[C@@H]65)C2)C1` [Vincristine], the “Toxic dose range” value in [1] (IV unless otherwise indicated) was “Conventional dose”. Also, the Toxicity entry in [1] is listed as “Myocardial Infarction”.
Consider `CN1CCC(=C2c3ccccc3CC(=O)c3sccc32)CC1.O=C(O)/C=C/C(=O)O` [ketotifen, 4-(1-Methyl-4-piperidylidene)-4H-benzo[4,5]cyclohepta[1,2-b] thiophen-10(9H)-one hydrogen fumarate], for which, in series [2], the median survival time came to 23.2 days and the “survival rate at day 30” value was determined as 57%. On P-gp, the “increase of doxorubicin relative fluorescence” value came to 50%. Besides, in the series on MCF-7/mx, the “influence on toxicity of mitoxantrone” value is “influenced neither”. Besides, the “sensitivity to mitoxantrone, VP-16 and vinblastine” value in the series with MCF-7/adr cells [4] (10 μM ketotifen) is “restored”. In the series with MCF-7/adr cells [4] (ketotifen compared with verapamil), the “reversal of doxorubicin resistance” value was “reverse resistance at similar concentrations”. For the same compound, the “toxicity of ketotifen itself” value in the series with MCF-7/adr cells [4] (over 1 to 10 μM, without doxorubicin) is recorded as “non-toxic”. In addition, in the series with MCF-7/adr cells [4] (setting [6]), the “ketotifen concentration at which MDR phenotype was completely reversed” value came to 10 µM and the “ketotifen concentration from which doxorubicin toxicity is restored” value was ≥ 1 µM. The “extension of survival compared to doxorubicin alone” value in [5] worked out at 2 days. Besides, the “influence on toxicity of VP-16” value in the series with MCF-7/vp cells is listed as “influenced neither”.
Take `COc1ccc(CCN(C)CCCC(C#N)(c2ccc(OC)c(OC)c2)C(C)C)cc1OC` (centres unmarked) [verapamil]: in series [2], the median survival time turned out to be 12.3 days and the “survival rate at day 30” value turned out to be 0%.
